For this assay, the system named is all microorganisms tested. Put plainly: Agar/broth dilution, inhibition of all microorganisms tested (Example 5). It is filed as cell-based. The procedure:
The Agar Dilution susceptibility method was used to test the effectiveness of the antimicrobial composition of Example 1. The organisms used were S. aureus ATCC 29213, E. coli ATCC 25922, S. typhimurium ATCC 14028, K. pneumoniae ATCC 10031, P. aeruginosa ATCC 27853, C. albicans ATCC 10231, and M. smegmatis ATCC 14468. The organisms were maintained on Tryptic Soy Agar (TSA) slants. For each week, the organisms were cultured in 10 ml of Tryptic Soy Broth (TSB). After incubation at 37° C. for 17 hours (48 hours for M. smegmatis), the organism suspensions were diluted with 10 ml of sterile saline as shown in Table 4. The mold Aspergillus niger was sustained on a Sabouraud Dextrose Agar slant. […]
The sample plates for the bacteria and yeast were prepared as follows: • Prepare 10 ml tubes of TSA and allow to cool to 50° C., • Add the calculated amount of the preservative or antimicrobial agent to 100 μl dimethylsulfoxide (DMSO) to achieve the specified concentration per ml TSA when 100 μl of the DMSO solution are added to a test tube containing 10 ml of TSA, • Vortex to homogenize the mixture in TSA, • Pour TSA and the preservative or antimicrobial agent into a properly labeled Petri dish, • Allow to cool overnight at room temperature. […]
The results for the bacteria and yeast were scored in relation to the growth present on the positive control plate. […]
In general terms: Broth dilution looks for growth in wells or tubes with falling amounts of substance.

`OCCc1ccccc1` [Phenylethyl Alcohol]: the “MIC capable of inhibiting all the tested organisms” value came out at 6.0 μl/ml.
